According to the supplement of paper PMC10307832:

What was measured:
Assay in all cases: relative viability (nuclei count vs DMSO), 5 days (fraction); higher = more cells survive
[1] = compound: N=C(N)NC(=N)NCCc1ccccc1 [Phenformin] (anchor plate); conditions: 250 µM
In short: (§1)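 Nuclei counted with MetaXpress define viability as the ratio of treated to vehicle wells, given as a median across plates. The lung cancer cell lines were in 1536-well plates, pinned with five √10-spaced library-drug doses and imaged at 4× after 5 days and Hoechst staining. Plates passed with control CV below 25% and at least one doubling.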

[2] = compound: C#Cc1cccc(Nc2ncnc3cc(OCCOC)c(OCCOC)cc23)c1 [Erlotinib]
In short: as §1

[3] = compound: O=C(Nc1c[nH]nc1-c1nc2ccc(CN3CCOCC3)cc2[nH]1)NC1CC1 [AT9283]
In short: as §1

[4] = compound: C#Cc1cccc(Nc2ncnc3cc(OCCOC)c(OCCOC)cc23)c1 [Erlotinib] + C[C@@H](Oc1cc(-c2cnn(C3CCNCC3)c2)cnc1N)c1c(Cl)ccc(F)c1Cl [Crizotinib] (partner 1 µM)
In short: (§2)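 Lung cancer cell lines were seeded in 1536-well plates and dosed by pin tool the next day, with either a single drug or a fixed anchor-drug dose combined with five library-drug doses (not always all listed) spaced in √10 steps. Five days later, one step fixed the cells and stained their nuclei (final 0.05% Triton X-100, 1% formaldehyde, 1 ug/ml Hoechst), and nuclei were counted on 4× images. Relative viability is the nuclei count in treated wells divided by the count in vehicle wells, and each value is the median of duplicate plates.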

[5] = compound: C#Cc1cccc(Nc2ncnc3cc(OCCOC)c(OCCOC)cc23)c1 [Erlotinib] + CS(=O)(=O)N1CCN(Cc2cc3nc(-c4cccc5[nH]ncc45)nc(N4CCOCC4)c3s2)CC1 [Pictilisib] (partner 1 µM)
In short: as §2

Row | Cell Line | relative viability [1] | relative viability ([2]; 0.02 µM) | relative viability ([2]; 0.2 µM) | relative viability ([2]; 0.6325 µM) | relative viability ([2]; 2 µM) | relative viability ([3]; 0.003 µM) | relative viability ([3]; 0.03 µM) | relative viability ([3]; 0.09487 µM) | relative viability ([3]; 0.3 µM) | relative viability ([4]; first compound 0.02 µM) | relative viability ([4]; first compound 0.2 µM) | relative viability ([4]; first compound 0.6325 µM) | relative viability ([4]; first compound 2 µM) | relative viability ([5]; first compound 0.02 µM) | relative viability ([5]; first compound 0.2 µM) | relative viability ([5]; first compound 0.6325 µM) | relative viability ([5]; first compound 2 µM)
1 | NCI-H2347 | 0.421 | 1.03 | 1.06 | 0.987 | 0.952 | 1.16 | 1 | 0.597 | 0.514 | 0.678 | 0.595 | 0.723 | 0.646 | 0.699 | 0.545 | 0.827 | 0.655
2 | NCI-H3122 | 0.386 | 0.987 | – | 1 | 0.977 | 0.982 | 0.963 | 0.619 | 0.236 | 0.287 | 0.262 | 0.258 | 0.241 | 0.576 | 0.614 | – | 0.598
3 | HARA | 0.46 | 1.04 | 0.707 | 0.823 | 0.466 | 0.859 | 0.446 | 0.166 | 0.171 | 1.04 | 0.983 | 0.79 | 0.505 | 0.555 | 0.46 | 0.311 | 0.155
4 | HCC-78 | 0.681 | 0.99 | 0.963 | 1.08 | 0.745 | 0.847 | 0.794 | 0.332 | 0.262 | 0.266 | 0.254 | 0.271 | 0.217 | 0.195 | 0.207 | 0.218 | 0.21
5 | HCC-366 | 0.608 | 1.03 | 1.07 | 0.984 | 1.01 | 0.956 | 0.938 | 0.54 | 0.204 | 0.49 | 0.524 | 0.736 | 0.502 | 0.185 | 0.0789 | 0.12 | 0.137
6 | PC-14 | 0.608 | 0.574 | 0.31 | 0.289 | 0.228 | 1.05 | 0.823 | 0.377 | 0.133 | 0.651 | 0.278 | 0.23 | 0.224 | 0.221 | 0.0861 | 0.0876 | 0.0584
7 | LK-2 | 0.485 | 0.993 | 0.864 | 1.36 | – | 0.937 | 0.57 | 0.168 | 0.195 | 0.217 | 0.228 | 0.198 | 0.227 | 0.649 | 0.519 | 0.735 | 0.599
8 | NCI-H358 | 0.359 | 1.01 | 0.631 | 0.547 | 0.308 | 0.863 | 0.2 | 0.192 | 0.158 | 0.549 | 0.524 | 0.379 | 0.24 | 0.319 | 0.313 | 0.303 | 0.28
9 | UMC-11 | 0.318 | 0.956 | 0.944 | 1.18 | 0.964 | 0.903 | 0.171 | 0.146 | 0.212 | 0.644 | 0.62 | 0.84 | 0.585 | 0.795 | 0.7 | 1.04 | 0.816
10 | LCLC-97TM1 | 0.391 | 1.07 | 1.14 | 1.23 | 0.972 | 0.841 | 0.469 | 0.159 | 0.112 | 0.44 | – | 0.376 | 0.487 | 0.171 | – | 0.226 | 0.211
11 | HOP-62 | 0.673 | 1.01 | 0.972 | 1.08 | 1.04 | 1 | 0.771 | 0.393 | 0.273 | 0.885 | 0.989 | 0.965 | 0.972 | 1.08 | 0.725 | 0.788 | 0.625
12 | NCI-H1703 | – | 1.01 | 0.911 | 1.02 | 0.989 | 0.957 | 0.31 | 0.335 | 0.28 | 0.592 | – | – | 0.569 | 0.233 | 0.218 | 0.29 | 0.243
13 | NCI-H520 | 0.671 | 1.04 | 0.899 | 1.1 | 1.03 | 0.76 | 0.551 | 0.372 | 0.223 | 0.683 | 0.9 | 0.987 | 0.68 | 0.262 | 0.279 | 0.335 | 0.298
14 | NCI-H2126 | 0.535 | 0.961 | 0.82 | 0.773 | 0.636 | 0.963 | 0.991 | 0.829 | 0.407 | 1.04 | 0.892 | 0.776 | 0.662 | 0.505 | 0.396 | 0.4 | 0.379
15 | NCI-H2087 | 0.453 | 1.03 | 1.03 | 1.07 | 0.879 | 0.988 | 0.63 | 0.269 | 0.16 | 0.882 | 1.06 | 0.871 | 0.849 | 0.842 | 0.844 | 0.932 | –
16 | NCI-H1355 | 0.456 | 0.978 | 0.878 | 0.956 | 0.755 | 0.956 | 0.971 | 0.68 | 0.197 | 1.1 | 0.999 | 0.944 | 0.789 | 0.499 | 0.392 | 0.407 | 0.312
17 | Calu-6 | – | 1.01 | 0.986 | 1.01 | 0.907 | 1.01 | 0.299 | 0.246 | 0.273 | 0.931 | 0.719 | 0.853 | 0.714 | 0.94 | 0.856 | 0.913 | 0.817
18 | A-427 | 0.323 | 1.03 | 0.957 | 1.08 | 1.01 | 0.929 | 0.453 | 0.264 | 0.242 | 0.966 | 1.03 | 0.887 | 0.838 | 0.826 | 0.682 | 0.829 | 0.76

Row | Cell Line | relative viability [1] | relative viability ([2]; 0.02 µM) | relative viability ([2]; 0.2 µM) | relative viability ([2]; 0.6325 µM) | relative viability ([2]; 2 µM) | relative viability ([3]; 0.003 µM) | relative viability ([3]; 0.03 µM) | relative viability ([3]; 0.09487 µM) | relative viability ([3]; 0.3 µM) | relative viability ([4]; first compound 0.02 µM) | relative viability ([4]; first compound 0.2 µM) | relative viability ([4]; first compound 0.6325 µM) | relative viability ([4]; first compound 2 µM) | relative viability ([5]; first compound 0.02 µM) | relative viability ([5]; first compound 0.2 µM) | relative viability ([5]; first compound 0.6325 µM) | relative viability ([5]; first compound 2 µM)
19 | NCI-H2170 | 0.439 | 1.02 | 0.996 | 0.872 | 0.656 | 0.991 | 0.864 | 0.471 | 0.197 | 1.17 | 1.06 | 1.1 | 0.569 | 0.316 | 0.282 | 0.236 | 0.176
20 | NCI-H460 | 0.529 | 0.994 | 0.959 | 1.05 | 0.96 | 0.985 | 0.931 | 0.542 | 0.21 | 1.08 | 0.763 | 1.26 | 0.74 | 0.351 | 0.335 | 0.412 | 0.353
21 | NCI-H2405 | 0.379 | 0.986 | 1 | 1.12 | 0.956 | 1 | 0.965 | 0.519 | 0.256 | 0.957 | 0.838 | 0.958 | 0.717 | 0.36 | 0.452 | 0.589 | 0.469
22 | NCI-H2023 | 0.43 | 0.966 | 0.89 | 0.946 | 0.758 | 1.03 | 0.935 | 0.266 | 0.138 | 0.575 | 0.44 | 0.469 | 0.294 | 0.3 | – | 0.218 | 0.226
23 | NCI-H1975 | 0.409 | 0.946 | 0.961 | 1.11 | 0.786 | 0.944 | 1.03 | 0.801 | 0.545 | 0.947 | 0.96 | 1.04 | 0.694 | 0.287 | 0.253 | 0.307 | 0.255
24 | EKVX | 0.231 | 0.962 | 0.587 | 0.43 | 0.215 | 0.915 | 0.858 | 0.629 | 0.324 | 1.04 | 0.457 | 0.287 | 0.147 | 0.405 | 0.217 | 0.191 | 0.109
25 | COR-L23 | 0.43 | 1.09 | 1.04 | 1.22 | 0.894 | 1.05 | 0.592 | 0.206 | 0.183 | 0.718 | 0.681 | 0.666 | 0.614 | 0.898 | 0.692 | 1.04 | 0.656
26 | SW 900 | 0.717 | 1 | 0.803 | 0.863 | 0.65 | 0.755 | 1.01 | 0.626 | 0.358 | – | – | – | – | – | – | – | –
27 | EBC-1 | – | 0.977 | 0.988 | 0.978 | 0.897 | 0.969 | 0.289 | 0.164 | 0.165 | 0.206 | 0.189 | 0.169 | 0.164 | 0.382 | 0.322 | 0.309 | 0.259
28 | NCI-H2342 | 0.607 | 0.903 | 0.891 | 0.84 | 0.725 | 1.04 | 0.877 | 0.78 | 0.424 | – | – | – | – | – | – | – | –
29 | NCI-H1299 | – | 1.03 | 1.02 | 1.05 | 0.992 | 1.03 | 0.699 | 0.473 | 0.364 | 0.989 | – | 0.988 | 0.965 | 0.894 | 0.839 | 0.918 | 0.55
30 | NCI-H1793 | 0.401 | – | 0.521 | 0.63 | 0.455 | 0.858 | 1.03 | 0.39 | 0.321 | – | – | – | – | 0.272 | 0.386 | 0.306 | 0.302
31 | NCI-H1648 | – | 0.83 | 0.704 | 0.608 | 0.439 | 0.765 | 0.886 | 0.493 | 0.312 | – | – | – | – | – | – | – | –
32 | NCI-H522 | 0.639 | 0.949 | 1.03 | 0.86 | 0.816 | 0.776 | 0.618 | 0.611 | 0.464 | – | – | – | – | – | – | – | –
33 | NCI-H1623 | 0.577 | 0.945 | 0.723 | 0.592 | 0.333 | 0.94 | 0.928 | 0.545 | 0.501 | – | – | – | – | – | – | – | –
34 | IA-LM | – | 0.947 | 0.777 | 1.08 | 0.885 | 0.853 | 0.735 | 0.267 | 0.111 | 0.808 | 1 | 0.93 | 0.85 | 0.338 | – | 0.348 | 0.13
35 | NCI-H1395 | 0.451 | 0.865 | 0.88 | 1.08 | 0.981 | 0.789 | 0.662 | 0.39 | 0.393 | – | – | – | – | 0.71 | 0.638 | 0.567 | 0.733
